Source: US8288367B2, “Substituted estratriene derivatives as 17BETA HSD inhibitors” (Solvay Pharmaceuticals GmBH, priority 2006, dated 2012)

What was measured:
[1] = target: T1, recombinant human 17β-HSD1 (Homo sapiens, UniProt P14061); experiment: Recombinant 17β-HSD1 assay (HPLC, 3H-estrone conversion); type: biochemical; conditions: 30 nM estrone, 1 mM NADPH, 30 min RT, read-out: Inhibition of rec. 17β-HSD1; for inhibition at 0.1 µM: 100 nM compound; for inhibition at 1 µM: 0.5 h, 1 μm compound
T1 construct: made in house; host or cells: Sf9 insect cells (baculovirus, Bac to Bac Expression System)
T1 sequence (P14061 1-328): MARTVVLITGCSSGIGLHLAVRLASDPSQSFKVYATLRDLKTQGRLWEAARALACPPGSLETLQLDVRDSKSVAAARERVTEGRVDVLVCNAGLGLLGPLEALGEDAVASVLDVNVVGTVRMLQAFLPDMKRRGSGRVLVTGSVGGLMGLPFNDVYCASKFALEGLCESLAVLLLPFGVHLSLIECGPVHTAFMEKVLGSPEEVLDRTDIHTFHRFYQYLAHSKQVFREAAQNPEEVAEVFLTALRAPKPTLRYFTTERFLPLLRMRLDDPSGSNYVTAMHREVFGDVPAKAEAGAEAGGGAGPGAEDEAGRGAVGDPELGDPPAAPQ
Protocol: 17β-HSD1 or 17β-HSD2 purification: Recombinant 17β-HSD1 and 17β-HSD2 baculoviruses were generated by the “Bac to Bac Expression System” (Invitrogen). Recombinant 17β-HSD1 or 17β-HSD2 bacmids were transfected to Sf9 insect cells using “Cellfectin Reagent” (Invitrogen). 60 h later cells were harvested; the fractions including 17β-HSD1 or 17β-HSD2 were isolated as described by Puranen et al. (1994). Aliquots were stored frozen until determination of enzymatic activity.
Recombinant 17β-HSD1 assay: Recombinant protein homogenate (0.1 μg/ml) was incubated in 20 mM KH2PO4 pH 7.4 reaction buffer, including protease inhibitors (Complete Protease Inhibitor Cocktail tablet, Roche Diagnostics, 1697498), with 30 nM estrone (Sigma, E9750) as substrate, 800 000 cpm/ml ^3H-estrone (PerkinElmer, NET319001MC) as a tracer substrate, and 1 mM NADPH (Sigma, N1630) as a co-factor for 30 min at RT, in the presence of potential inhibitors at concentrations of 1 μM or 0.1 μM. Inhibitor stock solutions were prepared in DMSO. The enzyme reaction was stopped by addition of trichloroacetic acid (1% final concentration). Samples were centrifuged in a microtiter plate at 4000 rpm for 10 min. Supernatants were applied to reverse phase HPLC on a Waters Symmetry C18 column, equipped with a Waters Sentry Guard column. Isocratic HPLC runs were performed at RT at a flow rate of 1 ml/min of acetonitrile:water 48:52 as running solvent. Radioactivity was monitored in the eluate by a Packard Flow Scintillation Analyzer. Total radioactivity for estrone and estradiol were determined in each sample and percent inhibition of estradiol conversion by the respective inhibitor was calculated
For the calculation of % inhibition the following formula was used:
[formula] Percent inhibition was calculated as follows: % inhibition=100−% conversion

[2] = target: T2, recombinant human 17β-HSD2 (Homo sapiens, UniProt P37059); experiment: Recombinant 17β-HSD2 assay (HPLC, 3H-estradiol conversion); type: biochemical; conditions: 50 nM estradiol, 1 mM β-NAD, read-out: Inhibition of rec. 17β-HSD2; for inhibition at 0.1 µM: 100 nM compound; for inhibition at 1 µM: 1 μm compound
T2 construct: made in house; host or cells: Sf9 insect cells (baculovirus, Bac to Bac Expression System)
T2 sequence (P37059 1-387): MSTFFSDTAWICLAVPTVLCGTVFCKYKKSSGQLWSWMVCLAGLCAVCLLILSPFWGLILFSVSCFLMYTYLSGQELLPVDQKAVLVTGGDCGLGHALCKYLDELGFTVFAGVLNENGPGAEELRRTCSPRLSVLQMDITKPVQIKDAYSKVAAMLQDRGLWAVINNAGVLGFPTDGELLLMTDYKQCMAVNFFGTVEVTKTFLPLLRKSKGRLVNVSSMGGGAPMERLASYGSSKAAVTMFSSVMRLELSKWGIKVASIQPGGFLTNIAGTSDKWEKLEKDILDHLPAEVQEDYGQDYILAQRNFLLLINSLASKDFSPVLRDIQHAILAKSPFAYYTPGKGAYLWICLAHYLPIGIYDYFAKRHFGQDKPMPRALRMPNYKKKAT
Protocol: 17β-HSD1 or 17β-HSD2 purification: Recombinant 17β-HSD1 and 17β-HSD2 baculoviruses were generated by the “Bac to Bac Expression System” (Invitrogen). Recombinant 17β-HSD1 or 17β-HSD2 bacmids were transfected to Sf9 insect cells using “Cellfectin Reagent” (Invitrogen). 60 h later cells were harvested; the fractions including 17β-HSD1 or 17β-HSD2 were isolated as described by Puranen et al. (1994). Aliquots were stored frozen until determination of enzymatic activity. Recombinant 17β-HSD2 assay: Recombinant 17β-HSD2 assay was performed as described for 17β-HSD1 but with following modifications: 6 μg/ml of recombinant protein homogenate, 50 nM Estradiol (Sigma, E8875) as a substrate, 800 000 cpm/ml ^3H-estradiol (PerkinElmer, NET317) as a tracer substrate and 1 mM β-NAD (Sigma N7004) as a co-factor were used. Total radioactivity for estrone and estradiol were determined in each sample and percent inhibition of estrone conversion by the respective inhibitor was calculated. For the calculation of % inhibition the following formula was used: [formula] Percent inhibition was calculated as follows: % inhibition=100−% conversion

| SMILES | inhibition at 0.1 µM [1] | inhibition at 1 µM [1] | inhibition at 0.1 µM [2] | inhibition at 1 µM [2] |
| --- | --- | --- | --- | --- |
| Cc1cnc(NC(=O)CC[C@@H]2CC(=O)[C@@]3(C)CC[C@@H]4c5ccc(B(O)O)cc5CC[C@H]4[C@H]23)s1 [Compound 11, [15β-{3-[(5-methyl-1,3-thiazol-2-yl)amino]-3-oxopropyl}-17-oxoestra-1(10),2,4-trien-3-yl]boronic acid] | 62% | 88% | 4.2% | 5.5% |
| C[C@]12CC[C@@H]3c4ccc(B(O)O)cc4CC[C@H]3[C@@H]1[C@H](CCC(=O)NC1CCCCC1)CC2=O [Compound 32, [15beta-[3-(cyclohexylamino)-3-oxopropyl]-17-oxoestra-1(10),2,4-trien-3-yl]boronic acid] | 77% | 91% | 1.1% | 3.5% |
| C[C@]12CC[C@@H]3c4ccc(B(O)O)cc4CC[C@H]3[C@@H]1[C@H](CCC(=O)NCc1ccc(F)cc1F)CC2(F)F [Compound 65, [15beta-{3-[(2,4-difluorobenzyl)amino]-3-oxopropyl}-17,17-difluoroestra-1(10),2,4-trien-3-yl]boronic acid] | 32% | 63% | 5.8% | 9.8% |
| C[C@]12CC[C@@H]3c4ccc(B(O)O)cc4CC[C@H]3[C@@H]1[C@H](CCC(=O)NCc1cccnc1)CC2(F)F [Compound 62, [17,17-Difluoro-15beta-{3-oxo-3-[(pyridin-3-ylmethyl)amino]propyl}estra-1(10),2,4-trien-3-yl]boronic acid] | 36% | 56% | 6.2% | 8.3% |
| C[C@]12CC[C@@H]3c4ccc(B(O)O)cc4CC[C@H]3[C@@H]1[C@@H](CCCC(=O)NCc1ccccc1)CC2=O [Compound 23, [15alpha-[4-(benzylamino)-4-oxobutyl]-17-oxoestra-1(10),2,4-trien-3-yl]boronic acid] | 76% | 54% | 1.8% | 0.4% |
| C[C@]12CC[C@@H]3c4ccc(B(O)O)cc4CC[C@H]3[C@@H]1[C@@H](CCCC(=O)NCc1ccc3c(c1)OCO3)CC2(F)F [Compound 50, [15alpha-{4-[(1,3-benzodioxol-5-ylmethyl)amino]-4-oxobutyl}-17,17-difluoroestra-1(10),2,4-trien-3-yl]boronic acid] | 40% | 57% | 8% | 32.8% |
| Cc1cccc2c(CCNC(=O)CC[C@@H]3CC(=O)[C@@]4(C)CC[C@@H]5c6ccc(B(O)O)cc6CC[C@H]5[C@H]34)c[nH]c12 [Compound 30, [15beta-(3-{[2-(7-methyl-1H-indol-3-yl)ethyl]amino}-3-oxopropyl)-17-oxoestra-1(10),2,4-trien-3-yl]boronic acid] | 50% | 56% | 1.3% | 6.3% |
| C[C@]12CC[C@@H]3c4ccc(B(O)O)cc4CC[C@H]3[C@@H]1[C@H](CCC(=O)NCc1ccc3c(c1)OCO3)CC2=O [Compound 34, [15beta-{3-[(1,3-benzodioxol-5-ylmethyl)amino]-3-oxopropyl}-17-oxoestra-1(10),2,4-trien-3-yl]boronic acid] | 47% | 65% | 3.2% | 0.4% |
| Cc1cnc(NC(=O)CC[C@@H]2CC(F)(F)[C@@]3(C)CC[C@@H]4c5ccc(B(O)O)cc5CC[C@H]4[C@H]23)s1 [Compound 58, [17,17-difluoro-15β-{3-[(5-methyl-1,3-thiazol-2-yl)amino]-3-oxopropyl}estra-1(10),2,4-trien-3-yl]boronic acid] | 23% | 55% | 6.8% | 11.6% |
| C[C@]12CC[C@@H]3c4ccc(B(O)O)cc4CC[C@H]3[C@@H]1[C@H](CCC(=O)N1CCCCC1)CC2=O [Compound 35, [17-oxo-15beta-(3-oxo-3-piperidin-1-ylpropyl)estra-1(10),2,4-trien-3-yl]boronic acid] | 57% | 56% | 4% | 1.5% |
| C[C@]12CC[C@@H]3c4ccc(B(O)O)cc4CC[C@H]3[C@@H]1[C@@H](CCCC(=O)NCc1ccccc1)CC2(F)F [Compound 54, [15alpha-[4-(benzylamino)-4-oxobutyl]-17,17-difluoroestra-1(10),2,4-trien-3-yl]boronic acid] | 41% | 58% | 7.6% | 25.2% |
| Cc1cnc(NC(=O)CC[C@@H]2CC(=O)[C@@]3(C)CC[C@@H]4c5ccc(C(N)=O)cc5CC[C@H]4[C@H]23)s1 [Compound 3, 15β-{3-[(5-methyl-1,3-thiazol-2-yl)amino]-3-oxopropyl}-17-oxoestra-1(10),2,4-triene-3-carboxamide] | 20% | 74% | -1.8% | 8.6% |
| C[C@]12CC[C@@H]3c4ccc(B(O)O)cc4CC[C@H]3[C@@H]1[C@H](CCC(=O)NC1CCCCC1)CC2(F)F [Compound 59, [15beta-[3-(cyclohexylamino)-3-oxopropyl]-17,17-difluoroestra-1(10),2,4-trien-3-yl]boronic acid] | 69% | 84% | 0.6% | 15.2% |
